In patent US20220380341A1, “INHIBITORS OF HIV-1 NEF FOR THE TREATMENT OF HIV DISEASE” (priority 2018, published 2022):
Where two headings read alike, the source gives them in different places.

Assays:
[1] = tested on: HIV-1NL4-3; test: HIV-1 infectivity assay in TZM-bl reporter cell line (LTR-luciferase, 48 h); type: cell-based; settings: Human immunodeficiency virus 1, TZM-bl
Protocol: (§1) In particular, the tables show antiretroviral activity as percent inhibition of HIV-1 infectivity at 1 μM. In brief, this assay uses the TZM-bl reporter cell line, which carries a stable copy of the HIV-1 LTR coupled to luciferase. Cells are infected with HIV-1NL4-3 in the presence and absence of each compound, and luciferase activity is measured 48 h later. This assay measures early events in the HIV-1 life cycle, including viral entry, reverse transcription, nuclear entry and integration, and viral transcription. All assays include control cells infected with Nef-defective HIV-1, which replicates at 30-50% of wild-type in this system. Results are normalized to percent inhibition relative to DMSO-treated control cells infected with wild-type HIV-1 (0% inhibition) and DMSO-treated cells infected with Nef-defective HIV-1 (100% of the Nef-dependent effect)—see column 3. In addition, cell viability is measured in the TZM-bl cell line in the presence of each test compound and in the absence of HIV-1 infection, using the Cell Titer Blue cell viability assay (Promega; column 4).

[2] = tested on: TZM-bl cell line; type: cell-based; settings: human, 1 μM
Protocol: as §1

[3] = molecular target: HIV-1 NefNL4-3 (Human immunodeficiency virus type 1 group M subtype B, UniProt P03406, A33V/T15A/T51N/V11I); test: Surface plasmon resonance binding to recombinant full-length Nef (NL4-3); settings: for RU30/RUNef (extent of binding): response units at 30 μM relative to Nef immobilized on the SPR chip; for Nef NL4-3 Binding, SPR 1:1 or 2-site fitting KD1: 1:1 Langmuir fit where the KD2 cell says '1 to 1 fitting', else 2-site fit
[4] = 1.0 μM, TZM-bl reporter cell line, Table 4, read-out: % Infectivity Inhibition
[5] = 48 h, Table 1, TZM-bl cells, 1 μM, 48 h, 100% = Nef-defective HIV-1, read-out: HIV-1 Infectivity % Inhibition Norm. to Δ-Nef @ 1 μM
[6] = KD, M, Table 4, SPR fit 2-step induced fit, KD = koff/kon × koff2/(koff2 + kon2)
[7] = Nef NL4-3 Binding, SPR 2-state fitting KD, Table 1, 2-step induced-fit model
[8] = Table 4, 2-step induced fit, T = 1/koff2
[9] = read-out: Nef NL4-3 Binding, SPR 1:1 or 2-site fitting KD2, Table 1, 2-site fit, second component
[10] = KD, M, Table 4, SPR fit 1:1 Langmuir, KD = koff/kon
[11] = Table 4, 1:1 Langmuir fit, T = 1/koff

Structure (SMILES) | inhibition at 1 µM [1, 4] | inhibition at 1 µM [1, 5] | % Cell Viability [2] | Percent Viability @ 1 μM (TZM-bl cells) [2] | Kd [3] | Kd [3, 6] | Kd [3, 7] | T, minutes (residence time) [3, 8] | Kd [3, 9] | RU30/RUNef (extent of binding) [3] | Nef NL4-3 Binding, SPR 1:1 or 2-site fitting KD1 ([3]; Table 1) | Kd [3, 10] | T, minutes (residence time) [3, 11] | Kd ([3]; Nef NL4-3 Binding, SPR 1:1 or 2-site fitting KD2, Table 1, 2-site fit, second component)
Cn1ccc(-c2nn(-c3nc4ccccc4[nH]3)c(O)c2CCc2ccc(F)cc2)cc1=O [Compound I-133, 4-[1-(1H-1,3-benzodiazol-2-y1)-4-[2-(4-fluorophenyl)ethyl]-5-hydroxy-1H-pyrazol-3-yl]-1-methyl-1,2-dihydropyridin-2-one] | 16% | 16% | 100% | 102.5% | 779 nM | 1.51 nM | 1.51 nM | 8.59E + 03 minutes | 65300 nM | 2.76E- 03 |  |  |  | 
Cn1cc(-c2nn(-c3nc4ccccc4[nH]3)c(O)c2CCc2ccc(F)cc2)ccc1=O [Compound I-134, 5-[1-(1H-1,3-benzodiazol-2-y1)-4-[2-(4-fluorophenyl)ethyl]-5-hydroxy-1H-pyrazol-3-yl]-1-methyl-1,2-dihydropyridin-2-one] |  | 45.8% |  | 100.5% |  |  |  |  |  |  | No Interaction |  |  | 
Oc1c(CCc2ccc(F)cc2)c(-c2ccc(C(F)(F)F)nc2)nn1-c1nc2ccccc2[nH]1 [Compound I-135, 1-(1H-1,3-benzodiazol-2-yl)-4-[2-(4-fluorophenyl)ethyl]-3-[6-(trifluoromethyl)pyridin-3-yl]-1H-pyrazol-5-ol] | 35.7% | 35.7% | 91.9% | 91.9% | 636 nM | 14.7 nM | 14.7 nM | 1.47E + 03 minutes |  | 2.87E- 03 |  |  |  | 
Oc1c(CCc2ccc(F)cc2)c(C2CCCO2)nn1-c1nc2ccccc2[nH]1 (centres unmarked) [Compound I-136, 1-(1H-1,3-benzodiazol-2-yl)-4-[2-(4-fluorophenyl)ethyl]-3-(oxolan-2-yl)-1H-pyrazol-5-ol] | 26.5% | 26.5% | 99.9% | 99.9% | 160 nM | 2460 nM | 2460 nM | 3.32E + 00 minutes | 4770 nM | 5.11E- 03 |  |  |  | 
Cn1cccc(CCc2c(-c3ccc(C(F)(F)F)cc3)nn(-c3nc4ccccc4[nH]3)c2O)c1=O [Compound I-137, 3-{2-[1-(1H-1,3-benzodiazol-2-yl)-5-hydroxy-3-[4-(trifluoromethyl)phenyl]-1H-pyrazol-4-yl]ethyl}-1-methyl-1,2-dihydropyridin-2-one] | 0% | -1.4% | 99.4% | 99.4% | 243 nM |  |  |  |  | 1.02E- 03 |  | 243 nM | 5.36E + 00 minutes | 
COc1cccc(-c2nn(-c3nc4ccccc4[nH]3)c(O)c2CCc2ccc(F)cc2)n1 [Compound I-138, 1-(1H-1,3-benzodiazol-2-yl)-4-[2-(4-fluorophenyl)ethyl]-3-(6-methoxypyridin-2-yl)-1H-pyrazol-5-ol] |  | 48.2% |  | 95.8% | 3960 nM |  |  |  |  |  |  |  |  | 
Oc1c(CCC2CCOCC2)c(-c2ccc(C(F)(F)F)cc2)nn1-c1nc2ccccc2[nH]1 [Compound I-139, 1-(1H-1,3-benzodiazol-2-yl)-4-[2-(oxan-4-yl)ethyl]-3-[4-(trifluoromethyl)phenyl]-1H-pyrazol-5-ol] | 44.1% | 44.1% | 80.8% | 80.8% | 556 nM | 2070 nM | 2070 nM | 1.77E + 01 minutes |  | 3.41E- 03 |  |  |  | 
Cc1ccc(-c2nn(-c3nc4ccccc4[nH]3)c(O)c2CCc2ccc(F)cc2)cn1 [Compound I-140, 1-(1H-1,3-benzodiazol-2-yl)-4-[2-(4-fluorophenyl)ethyl]-3-(6-methylpyridin-3-yl)-1H-pyrazol-5-ol] |  | 57.3% |  | 98.3% | 915 nM |  |  |  |  |  |  |  |  | 
Oc1c(CCn2nccn2)c(-c2ccc(C(F)(F)F)cc2)nn1-c1nc2ccccc2[nH]1 [Compound I-141, 1-(1H-1,3-benzodiazol-2-yl)-4-[2-(2H-1,2,3-triazol-2-yl)ethyl]-3-[4-(trifluoromethyl)phenyl]-1H-pyrazol-5-ol] |  | 8.7% |  | 99.5% |  |  |  |  |  |  | No Interaction |  |  | 
Cc1nccn1CCc1c(-c2ccc(C(F)(F)F)cc2)nn(-c2nc3ccccc3[nH]2)c1O [Compound I-142, 1-(1H-1,3-benzodiazol-2-yl)-4-[2-(2-methyl-1H-imidazol-1-yl)ethyl]-3-[4-(trifluoromethyl)phenyl]-1H-pyrazol-5-ol] |  | -7.8% |  | 100.2% | 32800 nM |  |  |  |  |  |  |  |  | 
Oc1c(CCn2cc(Cl)cn2)c(-c2ccc(C(F)(F)F)cc2)nn1-c1nc2ccccc2[nH]1 [Compound I-143, 1-(1H-1,3-benzodiazol-2-yl)-4-[2-(4-chloro-1H-pyrazol-1-yl)ethyl]-3-[4-(trifluoromethyl)phenyl]-1H-pyrazol-5-ol] | 0% | -19.6% | 98.9% | 98.9% | 426 nM |  |  |  |  | 1.02E- 03 |  | 426 nM | 1.75E + 01 minutes | 
Oc1c(CCc2ccccn2)c(-c2ccc(C(F)(F)F)cn2)nn1-c1nc2ccccc2[nH]1 [Compound I-146, 1-(1H-1,3-benzodiazol-2-yl)-4-[2-(pyridin-2-yl)ethyl]-3-[5-(trifluoromethyl)pyridin-2-yl]-1H-pyrazol-5-ol] | 5.7% | 5.7% | 98.5% | 98.5% | 1650 nM |  |  |  |  | 6.42E- 04 |  | 1650 nM | 3.67E + 00 minutes | 
Oc1c(CCc2ccc(Br)cc2)c(-c2ccc(C(F)(F)F)cn2)nn1-c1nc2ccccc2[nH]1 [Compound I-147, 1-(1H-1,3-benzodiazol-2-yl)-4-[2-(4-bromophenyl)ethyl]-3-[5-(trifluoromethyl)pyridin-2-yl]-1H-pyrazol-5-ol] | 59.3% | 59.3% | 97.6% | 97.6% | 0.0752 nM |  |  |  |  | 2.11E- 03 |  | 0.0752 nM | 4.30E + 04 minutes | 
CS(=O)(=O)c1ccc(-c2nn(-c3nc4ccccc4[nH]3)c(O)c2CCC2CCOCC2)cc1 [Compound I-149, 1-(1H-1,3-benzodiazol-2-yl)-3-(4-methanesulfonylphenyl)-4-[2-(oxan-4-yl)ethyl]-1H-pyrazol-5-ol] |  | 54.5% |  | 98.5% | 2330 nM |  |  |  |  |  |  |  |  | 
Oc1c(CCC2CCOCC2)c(-c2cccc(F)c2)nn1-c1nc2ccccc2[nH]1 [Compound I-150, 1-(1H-1,3-benzodiazol-2-yl)-3-(3-fluorophenyl)-4-[2-(oxan-4-yl)ethyl]-1H-pyrazol-5-ol] | 53.9% | 53.9% | 77.7% | 77.7% |  | 1070 nM | 1070 nM | 9.69E + 00 minutes |  | 4.75E- 03 |  |  |  | 10400 nM
OCCc1c(-c2ccc(C(F)(F)F)cc2)nn(-c2nc3ccccc3[nH]2)c1O [Compound I-153, 1-(1H-1,3-benzodiazol-2-yl)-4-(2-hydroxyethyl)-3-[4-(trifluoromethyl)phenyl]-1H-pyrazol-5-ol] | 0% | -20.1% | 99.9% | 99.9% | 68.8 nM |  |  |  |  | 9.06E- 04 |  | 68.8 nM | 9.31E + 00 minutes | 
CS(=O)(=O)c1ccc(-c2nn(-c3nc4ccccc4[nH]3)c(O)c2CCC2CCN(CC(F)(F)F)CC2)cc1 [Compound I-154, 1-(1H-1,3-benzodiazol-2-yl)-3-(4-methanesulfonylphenyl)-4-{2-[1-(2,2,2-trifluoroethyl)piperidin-4-yl]ethyl}-1H-pyrazol-5-ol] | 45.4% | 45.4% | 69.3% | 69.3% | 28800 nM |  |  |  |  | 4.50E- 03 |  | 28800 nM | 6.80E + 00 minutes | 
